Patent US9849141B2, “Use of spironolactone-based composition that exhibits an inhibitory action on T-lymphocyte activation which is useful for preventing and/or treating multiple sclerosis” (PONTIFICIA UNIVERSIDAD CATOLICA DE CHILE, priority 2010, dated 2017)

Key:
[1] = tested on: experimental autoimmune encefalomyelitis (EAE) induced with MOG 35-55 peptide; test: Effect of a spironolactone composition in EAE mice (clinical score); format: in vivo, C57BL/6 female mice; conditions: EAE induced C57BL/6 mice, pellets supplemented with daily dose of 1.8 mg per mouse, oral, vs control group on standard pellets (FIG. 1)
[2] = tested on: experimental autoimmune encefalomyelitis (EAE); conditions: administration to EAE mice; for MR inhibitors also in mice that did not receive aldosterone; cited from earlier work
[3] = tested on: dendritic cells / CD4+ T-cells; conditions: cited from earlier work
[4] = tested on: purified CD8+ T-lymphocytes; test: T-lymphocyte activation by plate-bound anti-CD3ε independent of antigen-presenting cells, IL-2 ELISA; format: cell-based; conditions: 5 ug/ml, 24 hrs, plate activated with different concentrations of anti-CD3ε (FIG. 3)
Protocol: FIG. 3: Plots showing the effect of a composition comprising spironolactone or epleronone in the activation of T-lymphocytes independent from antigen-presenting dendritic cells. An ELISA plate was activated with different concentrations of anti-CD3ε overnight, and then purified CD8+ T-lymphocytes were added and treated for 24 hrs with spironolactone (-□-), eplerenone (-▾-) o not treated (control -▴-). When the time was completed the supernatant was extracted and the IL-2 levels were determined using ELISA.
The following experiment was made in order to determine if spironolactone acts directly on T-lymphocytes or the effect is on the function of antigen-presenting cells. An ELISA plate was activated with different concentrations of anti-CD3ε overnight, and then, purified CD8+T-lymphocytes were added and treated with either spironolactone or epleronone (5 ug/ml) during 24 hrs. After that period, the supernatant was withdrawn and IL-2 levels were determined using ELISA. This assay is based on that T-lymphocytes, beside expressing TCR, express a protein denominated CD3, which transduces the activating signal, generated by the interaction of TCR with the antigenic peptide bound to the MHC of the antigen-presenting cell, to the interior of the T-lymphocyte.

[5] = tested on: CD8+ or CD4+ T-lymphocytes co-cultured with antigen-presenting cells (dendritic cells); test: T-lymphocyte activation by ovalbumin-pulsed antigen-presenting cells, IL-2 ELISA; format: cell-based, transgenic mice; conditions: 5 ug/ml during co-culture, 24 hrs, antigen-presenting cells pulsed with 10 ug/ml ovalbumin (FIG. 2)
Protocol: FIG. 2. Plots showing the effect of a composition comprising spironolactone in the inhibition of activation of T-lymphocytes through antigen-presenting cells. Antigen-presenting cells (dendritic cells) were pulsed with ovalbumin, washed and co-cultured with CD8+ or CD4+T-lymphocytes obtained from transgenic mice whose TCR specifically recognizes an ovalbumin derived peptide charged on class I or II MHC respectively. At the same time, the culture was treated with spironolactone (-□-) eplerenone (-▾-) or not treated (control -▴-) and after 24 hours, the supernatant was withdrawn and the presence of interleukin-2 (IL-2) assayed using ELISA. *p<0.05 one-way ANOVA.
Antigen-presenting cells were pulsed with 10 ug/ml of ovalbumin (OVA) protein over 24 hrs, washed and then co-cultured with CD8+ or CD4+T-lymphocytes obtained from transgenic mice whose TCR recognizes specifically a ovalbumin derived peptide charged in MHC class I or II, respectively. […] After 24 hrs, the supernatant was withdrawn and IL-2 secretion, a cytokine secreted by activated T-lymphocytes, was assayed using ELISA assay. In this specific immunological test, it is expected the activation of said T-lymphocytes and, therefore, an increase in IL-2 secretion.

[6] = tested on: systemic lupus erythematosus-like disease in FcγII receptor knockout mice; test: Effect of spironolactone in systemic lupus erythematosus mice; format: in vivo; conditions: pellets supplemented with 1.8 mg daily, oral, compared to regularly fed mice (FIG. 5)
[7] = tested on: immune synapsis between T-lymphocytes and antigen-presenting cells; test: Immune synapsis between antigen-presenting cells and T-lymphocytes, Golgi polarization by confocal fluorescence microscopy; format: cell-based; conditions: 5 ug/ml in culture medium, co-culture 2 hrs (FIG. 4B)
Source text: FIG. 4: Photographs using confocal fluorescence microscopy, showing immunological synapsis between antigen-presenting dendritic cells and T-lymphocyte. T-lymphocytes were dyed with BODIPY FL C5-Ceramide, which is directed to the Golgi apparatus, while antigen-presenting cells were dyed with CMTMR-Orange and co-cultured without spironolactone (FIG. 4A) or in the presence of spironolactone (FIG. 4B) during 2 hrs, afterwards, the cells were observed under a confocal fluorescence microscope.
It has been determined that an efficient activation of T-lymphocytes requires an stable interaction between the antigen-presenting cell and the T-lymphocyte, which is known as “immune synapsis”. A stable immune synapsis is translated in a polarization of the Golgi apparatus, an organelle in charge of protein transport, of the T-lymphocyte towards the contacting site with the antigen-presenting cell. In this way, it is possible to observe an efficient immune synapsis checking if a polarization from Golgi apparatus towards the contacting site with the antigen-presenting cell exists or not. […] Afterwards, both cell groups were contacted and the interaction between cells using a confocal fluorescence microscope was observed. […]

| SMILES | clinical score associated with the disease [1] | effect on disease in EAE mice [2] | suppression of activator effects of aldosterone in the function of dendritic cells [3] | secretion of IL-2 (ELISA) [4] | activation of T-lymphocytes (IL-2 secretion, ELISA) [5] | deposition of immune complexes in the kidney [6] | immune synapsis (polarization of the Golgi apparatus of the T-lymphocyte towards the antigen-presenting cell) [7] | induction of T helper 17 (Th17) phenotype in CD4+ T-cells by stimulated dendritic cells ([3]; dendritic cells stimulated with aldosterone) |
| --- | --- | --- | --- | --- | --- | --- | --- | --- |
| CC(=O)S[C@@H]1CC2=CC(=O)CC[C@]2(C)[C@H]2CC[C@@]3(C)[C@@H](CC[C@@]34CCC(=O)O4)[C@H]12 [spironolactone] | significantly reduces the clinical score | only spironolactone had protecting effects | could be suppressed | same inhibiting effect on the secretion of IL-2 | inhibits the activation of T-lymphocytes | did not observe a decrease in the deposition of immune complexes in the kidney | immune synapsis is not produced |  |
| C[C@]12CCC(=O)C=C1CC[C@@H]1[C@@H]2[C@@H](O)C[C@]2(C=O)[C@@H](C(=O)CO)CC[C@@H]12 [aldosterone] |  | showed a deterioration in their disease |  |  |  |  |  | induce the T helper 17 (Th17) phenotype in CD4+ T-cells |
| COC(=O)[C@@H]1CC2=CC(=O)CC[C@]2(C)[C@@]23O[C@@H]2C[C@@]2(C)[C@@H](CC[C@@]24CCC(=O)O4)[C@H]13 [epleronone] |  |  | could be suppressed |  | no such inhibiting effect on the activation of T-lymphocytes is observed |  |  |  |
